Organism: Rattus norvegicus
Experiment: Inhibition of [3H]norepinephrine uptake was determined in rat brain synaptosomal preparation
Assay type: functional

Point of comparison: `N[C@H]1C=Cc2ccccc2C1` (racemic), IC50 650 nM. Against it:
- CC(N)Cc1ccccc1 (racemic) — within 1.5-fold, 490 nM
- CC[C@H](N)Cc1ccccc1 (racemic) — 10-fold higher, 6500 nM
- N[C@H]1CCc2ccccc2C1 (racemic) — within 1.5-fold, 850 nM

— ChEMBL document CHEMBL1121983, “Conformational requirements for norepinephrine uptake inhibition by phenethylamines in brain synaptosomes. Effects of alpha-alkyl substitution” (J Med Chem, 1982)
